Test results taken from PubChem BioAssay AID1996.
Converted amounts (≈) assume the structure as drawn.

settings: buffer; pH 7.4; 200.0 µM

| SMILES | solubility kinetic [µg/mL] |
| --- | --- |
| CC(=O)c1ccc(NC(=O)C(C)OC(=O)/C=C/c2ccco2)cc1 (stereo unspecified) | 21.7 (≈ 66.3 µM) |
| CC(C)c1ccc(NC(=S)Nc2ccc3[nH]c(=O)[nH]c3c2)cc1 | 16.7 (≈ 51.2 µM) |
| O=c1c2ccccc2nc(/C=C/c2ccccc2)n1-c1ccc(O)cc1 | 1.6 (≈ 4.7 µM) |
| COc1ccc(CNC(=O)COC(=O)c2ccc(C(=O)c3ccccc3)cc2)cc1 | 7.4 (≈ 18.3 µM) |
| Cc1ccc(Cn2c(N3CCN(C)CC3)nc3c2c(=O)[nH]c(=O)n3C)cc1 | > 55.3 |
| C=CCn1c(SCCCC)nc([O-])cc1=O.[NH4+] | 22.4 |
| Nc1ccc(Oc2c(Cl)cccc2Cl)nc1 | > 38.3 |
| CC(=O)N1CCN(C2=NC(=O)/C(=C\c3cccs3)S2)CC1 | 38.7 (≈ 120 µM) |
| CCn1ccnc1CN(C)Cc1nc(CCC(C)C)no1 | 38.4 (≈ 132 µM) |
| CC(C)c1nc2oc3c(=O)[nH]cnc3c2c2c1COC(C)(C)C2 | > 47 |
| COC(=O)C(NC(=O)CN1C(=O)c2ccccc2C1=O)c1ccc(O)c(OC)c1 (stereo unspecified) | 55.8 (≈ 140 µM) |
| COc1ccc(CC(CN)c2ccccc2)cc1 (stereo unspecified) | 29.5 (≈ 122 µM) |
| Nc1nc2ccc(NC(=O)c3ccco3)cc2s1 | > 38.9 |
| O=C(/C=C\c1ccccc1)Oc1cccc2cccnc12 | 17.3 (≈ 62.8 µM) |
| CCSc1ccccc1C(=O)NCc1cccnc1 | > 40.9 |
| CC(=O)c1ccc(NC(=O)C(Cc2ccccc2)n2cccc2)cc1 (stereo unspecified) | 1.6 (≈ 4.81 µM) |
| CCOC(=O)CCCC(=O)N1CCOCCOCCOCC1 | > 47.6 |
| COc1ccc(C(=O)/C=C/Nc2ccccn2)c(OC)c1 | 4.2 (≈ 14.8 µM) |
| CNC(=S)N1CCn2cccc2C1c1ccc(F)cc1 (stereo unspecified) | 40.8 (≈ 141 µM) |
| O=C(Nc1ccc(F)c(Cl)c1)c1cccnc1 | 24.5 (≈ 97.7 µM) |
| C=CCn1c(COc2ccc(OC)cc2)nc2ccccc21 | 26.8 (≈ 91 µM) |
| O=C(COc1ncnc2ccccc12)NCCc1ccc(F)cc1 | 41.9 (≈ 129 µM) |
| O=C(NCCCc1ccccc1)c1cccc(Br)c1 | 19 (≈ 59.7 µM) |
| COc1ccc(NC(=O)CSc2nccn2Cc2ccco2)c(OC)c1 | 51.9 (≈ 139 µM) |

| SMILES | solubility kinetic [µg/mL] |
| --- | --- |
| C=CCNC(=O)c1cnc(-c2ccccc2)nc1-c1ccccc1 | 0.7 (≈ 2.22 µM) |
| C=CCN1C(=O)C(=O)N(CC(=O)NCC(=O)Nc2ccc(F)c(F)c2F)C1=O | > 59.7 |
| O=C(O)CSc1nc2ccccc2s1 | > 33.8 |
| Cc1ccc2[nH]c3c(c2c1)CCN1C(=O)OC(C)(C)C31C (stereo unspecified) | 10.4 (≈ 36.6 µM) |
| Cc1onc(-c2ccccc2)c1C(=O)O/N=C(\N)c1ccc([N+](=O)[O-])o1 | 11.6 (≈ 32.6 µM) |
| O=C(C#Cc1ccccc1)Nc1ccccc1F | 25.4 (≈ 106 µM) |
| O=C(NCCN1C(=O)S/C(=C\c2ccc(Cl)cc2)C1=O)C1=COCCO1 | 2.6 (≈ 6.59 µM) |
| COc1ccccc1C(=O)N/C(=N/c1nc(C)cc(C)n1)Nc1ccccc1 | 1.1 (≈ 2.93 µM) |
| O=C(COC(=O)c1ccccc1C(F)(F)F)NC(=O)NCc1ccco1 | 19.5 (≈ 52.7 µM) |
| CCCCNC(=O)/C(=C/c1ccco1)NC(=O)c1ccco1 | 37.7 (≈ 125 µM) |
| CCN(CC)C1CCN(c2nc3nonc3nc2NCCOC)C1 (stereo unspecified) | 46.8 (≈ 140 µM) |
| CN(C)CCCNc1c2ccccc2nc2ccccc12 | > 41.9 |
| CCOC(=O)c1ccc(CC2SC(N)=NC2=O)cc1 (stereo unspecified) | 36.6 (≈ 131 µM) |
| CC(=O)C1=C(O)C(=O)N(c2ccc(O)cc2)C1c1ccccc1F (stereo unspecified) | > 49.1 |
| COc1nc(N)nc2nc[nH]c12 | > 24.8 |
| CC(C)(C)C(=O)c1cn(Cc2ccccc2)c2ccccc12 | 1.5 (≈ 5.15 µM) |
| CCC(C)Nc1nc2c(c(=O)[nH]c(=O)n2C)n1CCOc1ccccc1 (stereo unspecified) | 19.8 (≈ 55.4 µM) |
| CC(C)c1ccccc1NC(=O)c1ccc2ncsc2c1 | 21 (≈ 70.9 µM) |
| N/C(=N\OC(=O)c1cccs1)C1(c2ccc(Cl)cc2Cl)CC1 | 12.3 (≈ 34.6 µM) |
| CC(C)Cn1c(N)cc(=O)n(C)c1=O | 22.2 (≈ 113 µM) |
| N#Cc1ccc(C(=O)N(Cc2ccccc2)c2ccccc2)cc1 | 26.4 (≈ 84.5 µM) |
| Cc1cccc(NC(=S)Nc2ccccn2)c1 | 1.6 (≈ 6.58 µM) |
| Cc1onc(-c2ccccc2)c1C(=O)NCCc1ccncc1 | > 46.1 |
| Cn1c(=S)[nH]c2scc(-c3cccs3)c2c1=O | > 42.1 |

| SMILES | solubility kinetic [µg/mL] |
| --- | --- |
| CC(C(=O)c1c[nH]c2ccccc12)N1CCN(C(=O)c2ccco2)CC1 (stereo unspecified) | > 52.7 |
| N=c1oc2ccccc2cc1C(=O)NCc1ccccc1 | 6.7 (≈ 24.1 µM) |
| O=S(=O)(NC1CN2CCC1CC2)c1ccc(Cl)cc1 (stereo unspecified) | 42.6 (≈ 142 µM) |
| COc1ccc(CN2C(=O)CSC2c2ccncc2)cc1 (stereo unspecified) | > 45.1 |
| S=C(NCc1ccc(Cl)cc1)N1CCN(c2ccccn2)CC1 | < 0.2 |
| Cc1ccc(CNC(=O)C(Cc2ccccc2)n2cccc2)cc1 (stereo unspecified) | 5.3 (≈ 16.6 µM) |
| COCCn1c(N2CCCC2)nc2c1c(=O)[nH]c(=O)n2C | > 44 |
| CSc1nc2nc3c(cc2c(=O)n1-c1cccc(C)c1)COC(C)(C)C3 | 2.6 (≈ 7.08 µM) |
| Cc1cc(=O)cc(C)n1-c1ccc(F)cc1F | > 35.3 |
| COc1cc(NC(N)=S)c(OC)cc1Cl | > 37 |
| CC1CC(NC(=O)CC#N)CC(C)(C)C1 (stereo unspecified) | > 31.2 |
| O=c1c2ccccc2ncn1-c1ccc([N+](=O)[O-])cc1Cl | 17 (≈ 56.3 µM) |
| COc1ccc(C(=O)/C=C/c2cccnc2)c(OC)c1 | > 40.4 |
| Cc1ccccc1NC(=S)Nc1cccc2cnccc12 | 34.2 (≈ 117 µM) |
| Cl.c1ccc(C2CNCCc3ccccc32)cc1 (stereo unspecified) | > 39 |
| O=C1NC(=O)/C(=C/c2cc3c(cc2Br)OCO3)S1 | > 49.2 |
| O=C(O)CCCCCNC(=O)OCC1c2ccccc2-c2ccccc21 | 3.4 (≈ 9.62 µM) |
| S=C(NC1CC1)N1CCN(C(=S)NC2CC2)CC1 | > 42.7 |
| Cc1cccc(N2C(=O)c3ccc(Br)cc3C2=O)n1 | > 47.6 |
| CCc1ccc(NC(=O)c2cc(Br)ccc2Br)cc1 | < 0.8 |
| COc1cc(/C=C2\N=C(C)OC2=O)cc(OC)c1OC | 25.3 (≈ 91.2 µM) |
| CCN(CC)CCNC(=O)c1ccc(N)cc1.Cl | > 40.8 |
| COc1cc(C(C)=O)ccc1OC(=O)N(C)c1ccccc1 | 44.2 (≈ 148 µM) |

Continued, values first:

| solubility kinetic [µg/mL] | SMILES |
| --- | --- |
| > 48.2 | Cc1ccc2c(=O)cc(C(=O)NC3CCS(=O)(=O)C3)oc2c1 (stereo unspecified) |
| 30.2 (≈ 114 µM) | O=C(Cc1c(F)cccc1Cl)Nc1ccccn1 |
| 1.6 (≈ 5.57 µM) | COc1cc(SC)ccc1C(=O)Nc1ccc(C)cc1 |
| > 41.7 | O=C(NCc1ccco1)C1Cc2cc(Cl)ccc2O1 (stereo unspecified) |
| 18.3 (≈ 48.1 µM) | CC(C)c1ccc(S(=O)(=O)N2CCN(C(=O)C3=COCCO3)CC2)cc1 |
| 1.7 (≈ 6.29 µM) | Cn1c(CNC(=O)C2CCCCC2)cc2ccccc21 |
| 2.5 (≈ 7.2 µM) | CN(Cc1ccccc1)S(=O)(=O)c1ccc(N2CCOCC2)nc1 |
| 40.3 (≈ 145 µM) | O=C(c1ccc(COCC(F)(F)F)o1)N1CCCC1 |
| > 50.9 | COC(=O)c1ccsc1NC(=O)CS(=O)(=O)c1ccccc1 |
| 30.8 (≈ 112 µM) | CC1CCc2cc(F)ccc2N1C(=O)c1cccs1 (stereo unspecified) |
| > 45.7 | Cc1ccc(C(C)C)cc1S(=O)(=O)NCc1ccccn1 |
| > 39.6 | O=C(NCC(=O)N1CCCCCCC1)c1ccco1 |
| 0.6 (≈ 2.85 µM) | Nc1cc(Cl)ccc1N1CCCCC1 |
| > 56.9 | COc1ccc(OC)c(NC(=S)N2CCN(C(=O)C3CCCO3)CC2)c1 (stereo unspecified) |
| > 49 | CCOc1ccc(S(=O)(=O)N(CC)CC(=O)NC2CC2)cc1 |
| > 43.1 | C[C@H](NC(=O)Nc1cccc(Br)c1)C(=O)O |
| 8.7 (≈ 17.8 µM) | O=C(COC(=O)/C=C/c1ccc(Cl)cc1)Nc1cccc(S(=O)(=O)NC2=NCCCCC2)c1 |
| > 51.5 | COc1cccc(CC2(CO)CCN(Cc3cn(C)nc3C)CC2)c1 |
| 1.4 (≈ 4.64 µM) | CC(NC(=O)C12CC3CC(CC(C3)C1)C2)c1ccc(F)cc1 (stereo unspecified) |
| 2.5 (≈ 9.42 µM) | Cc1coc(C)c1C(=O)Nc1ccc2ccccc2c1 |
| > 41.2 | Cc1ccc(C(=O)NCC(=O)N2CCCCCC2)cc1 |
| 22 (≈ 69.1 µM) | CCC(C)[C@H](NC(=O)NC1CCCc2ccccc21)C(=O)OC (stereo partly specified) |
| > 41.8 | Cc1cc(=O)oc(C)c1C(=O)Nc1cccnc1Cl |
| > 38.2 | Cc1ccc(C)c(S(=O)(=O)N2CCNCC2)c1 |
| > 51.1 | O=C(N/C(=C\c1ccco1)C(=O)N1CCCC1CO)c1ccccc1 (stereo unspecified) |

| solubility kinetic [µg/mL] | SMILES |
| --- | --- |
| 11.5 (≈ 31 µM) | Cc1cc(C(=O)CN2C(=O)C(=O)N(CCC3=CCCCC3)C2=O)c(C)n1C |
| 20.3 (≈ 55.6 µM) | COC(=O)C1C(O)=C(C(C)=Nc2cccc3ccccc23)C(=O)CC1(C)C (stereo unspecified) |
| 2.3 (≈ 7.48 µM) | CC1CCN(Cc2cc(=O)oc3ccc4ccccc4c23)CC1 |
| < 0.2 | O=C(NC(=S)Nc1cccc([N+](=O)[O-])c1)C1CCCCC1 |
| 8.8 (≈ 26.2 µM) | O=C(CSc1nc2c(c(=O)[nH]1)CCC2)Nc1ccccc1Cl |
| < 0.3 | Cc1cc(C)cc(NC(=O)Nc2ccc3c(c2)CCC3)c1 |
| 17 (≈ 50.1 µM) | CCOC(=O)C1CCN(Cc2cccc(Oc3ccccc3)c2)CC1 |
| > 36.9 | CC1(C)CN(C(Cc2ccccc2)C(N)=O)C1=O (stereo unspecified) |
| < 0.2 | Cc1cc(NC(=O)CSc2nc3c(cc2C#N)CCCCC3)no1 |
| 16 (≈ 39.9 µM) | COC(=O)c1ccc(COC(=O)CSCC(=O)Nc2ccc(C)cc2C)cc1 |
| > 50.8 | Cc1cccc(C)c1NC(=O)CN(C1CCCCC1)S(C)(=O)=O |
| 6.3 (≈ 18.8 µM) | O=C(NC1CCCCCC1)C1CC(=O)N(c2ccc(Cl)cc2)C1 (stereo unspecified) |
| > 49.9 | O=CN1CCN(S(=O)(=O)c2ccc(Cl)c(C(=O)O)c2)CC1 |
| > 37.8 | Cn1ncc([N+](=O)[O-])c1C(=O)N1CCCCCC1 |
| 1.8 (≈ 4.5 µM) | Cc1ccc(C(=O)NCC(C)NC(=O)c2ccc(C)c([N+](=O)[O-])c2)cc1[N+](=O)[O-] (stereo unspecified) |
| > 28.8 | Nc1ccc(CN2CCOCC2)cc1 |
| > 56.6 | CC(=O)c1ccc(NC(=O)CN2C(=O)NC3(CCc4ccccc43)C2=O)cc1 (stereo unspecified) |
| > 40.3 | O=C(O)CN1CCN(Cc2cccc(Cl)c2)C1=O |
| 35.6 (≈ 123 µM) | C=CCc1ccc(OCCCNC2CCCC2)c(OC)c1 |
| 43 (≈ 141 µM) | COc1ccc(C(C)NS(=O)(=O)Cc2ccccc2)cc1 (stereo unspecified) |
| 40.5 (≈ 134 µM) | CC(C)(CO)CNC1CCCN(C2Cc3ccccc3C2)C1 (stereo unspecified) |
| > 55.8 | CCCCn1c(CCl)nc2cc(S(=O)(=O)N3CCOCC3)ccc21 |
| 46.4 (≈ 150 µM) | O=C(Nc1cc2c3c(c1)CC(=O)N3CCC2)c1ccccc1F |
| > 49.4 | Cc1nc2ccccc2n1CC(=O)OCC(=O)N1CCC(C)CC1 |
| 21.3 (≈ 63.6 µM) | O=C(Nc1ccc(N2CCOCC2)cc1)c1c(F)cccc1Cl |
